According to paper PMC6511942, “Exploitation of Antibiotic Resistance as a Novel Drug Target: Development of a β-Lactamase-Activated Antibacterial Prodrug” (Journal of Medicinal Chemistry, 2019):

How the values were obtained:
DH5α cells –βla = experiment: Whole-cell NMR β-lactamase hydrolysis assay, DH5α without β-lactamase; assay type: cell-based, E. coli; conditions: DH5α – CTX-M-1, 100 μM, 60 min
DH5α expressing CTX-M-1 = experiment: Whole-cell NMR β-lactamase hydrolysis assay, DH5α + CTX-M-1; assay type: cell-based, E. coli; conditions: DH5α + CTX-M-1, 100 μM, 60 min
recombinant DNA gyrase = biological target: T1, recombinant DNA gyrase (Escherichia coli, UniProt P0AES4+P0AES6); experiment: Recombinant DNA gyrase supercoiling assay ± CTX-M-15; assay type: biochemical, E. coli; conditions: ± CTX-M-15
T1 construct: purchased Inspiralis
T1 sequence (P0AES4 whole entry, one chain of several): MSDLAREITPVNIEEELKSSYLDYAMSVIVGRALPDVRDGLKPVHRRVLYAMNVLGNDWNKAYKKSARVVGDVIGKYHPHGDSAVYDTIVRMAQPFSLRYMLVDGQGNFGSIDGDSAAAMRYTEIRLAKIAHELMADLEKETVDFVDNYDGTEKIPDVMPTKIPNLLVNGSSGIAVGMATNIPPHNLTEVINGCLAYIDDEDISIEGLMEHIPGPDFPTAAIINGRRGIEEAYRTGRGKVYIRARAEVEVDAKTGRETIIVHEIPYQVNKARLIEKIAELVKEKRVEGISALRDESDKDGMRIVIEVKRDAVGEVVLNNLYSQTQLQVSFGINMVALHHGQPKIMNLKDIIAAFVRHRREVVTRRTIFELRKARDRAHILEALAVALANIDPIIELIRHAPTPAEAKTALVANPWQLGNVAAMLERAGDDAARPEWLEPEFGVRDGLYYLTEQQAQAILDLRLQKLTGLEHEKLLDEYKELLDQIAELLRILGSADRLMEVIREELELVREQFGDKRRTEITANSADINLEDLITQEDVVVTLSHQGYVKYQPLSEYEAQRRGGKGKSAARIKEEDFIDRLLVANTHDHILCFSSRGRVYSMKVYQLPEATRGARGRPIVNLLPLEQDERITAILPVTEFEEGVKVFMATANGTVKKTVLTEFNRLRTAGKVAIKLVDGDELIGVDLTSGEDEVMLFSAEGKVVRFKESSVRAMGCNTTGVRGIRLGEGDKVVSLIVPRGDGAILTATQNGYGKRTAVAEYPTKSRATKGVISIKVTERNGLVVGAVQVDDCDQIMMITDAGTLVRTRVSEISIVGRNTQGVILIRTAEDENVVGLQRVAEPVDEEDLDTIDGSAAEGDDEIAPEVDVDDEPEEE

CFT073 + pSU18 + CTX-M-1 = experiment: Whole-cell NMR β-lactamase hydrolysis assay, CFT073 + CTX-M-1; assay type: cell-based, E. coli; conditions: 100 μM compound at 1 h by whole-cell NMR assay
E. coli strain DH5α = experiment: MIC, broth microdilution, E. coli DH5α; assay type: cell-based; conditions: for MIC value DH5α: E. coli DH5α without β-lactamase
Procedure: Analysis of the literature identified the amide functionality at C-7 of the cephem ring as central to PBP and β-lactamase activity,[44]−[51] and therefore structural changes at this position provided the initial focus of investigation. By use of cephalothin 7 (Table 1) as the starting point, analogues were prepared to explore bioisosteric replacement,[52],[53] functionalities present in early generation β-lactam antibiotics, and to probe steric and electronic tolerance.[54],[55] All compounds were synthesized according to the previously reported methods (Figure S1 in Supporting Information).[55],[56] Antibacterial activity was assessed by determining the minimal concentration required to inhibit bacterial growth, known as the minimal inhibitory concentration (MIC), against the E. coli strain DH5α ± expression of the ESBL TEM-116.[57] The susceptibility to β-lactamase mediated hydrolysis was assessed by determining the physiological efficiency (kcat/Km) of hydrolysis by recombinant AmpC protein.[3],[58],[59] […]
pNDM pSU18 containing the native coding sequence for NDM-1 under the Jiménez-control of the native promoter Castellanos et […]
pKPC pSU18 containing the native coding sequence for KPC-3 under the Brem et al., control of the native promoter 20166
Transformation of E. coli with plasmids
Plasmids were introduced via heat shock into chemically competent DH5a and via electroporation into E. coli CFT073 following published protocols.8 […]
The bacterial strains and plasmids used in this study are detailed in Supplementary Table 1.
E. coli was grown in Mueller-Hinton Broth (MHB) or Lennox Broth (LB) at 37 °C, with shaking (180 r.p.m.) overnight (16-18 h). […]
MIC assays were performed in 96-well thermo scientific Nuclon Delta Surface plates and MICs were determined in accordance with the broth microdilution protocol.7 E. coli grown to stationary-phase in MHB or LB were adjusted to OD600 nm of 0.05 in MHB and […]
determined as the lowest concentration of antibiotic that inhibited visible bacterial growth.
OD595 measurements were recorded on a BioRad 1Mark Microplate Reader. […]
subsequently incubated at 37 °C with shaking (180 r.p.m.) and bacterial viability determined […]
Each compound was incubated for 1 hour at room temperature in 100 mM NaPO4 (pH 7) ± 0.5 M NaOH. The wavelength at which the difference between un-hydrolysed and hydrolysed compound was the greatest was selected (typically 263 nm) and a compound concentration vs. absorbance standard curve was generated. […] Recombinant Amp-C in assay buffer was added immediately before incubatio n in the microplate reader at 37 °C. UV absorbance was measured every 20 s for 1 h on a BMG LABTECH SPECTROstarNano. Kinetic parameters were determined by half -life analysis. […]

CFT073 + pSU18 (pEMP) = experiment: microbe, parasite or virus in culture; assay type: cell-based, E. coli; conditions: Escherichia coli, read-out: MIC value CFT073 + pSU18, empty plasmid, no β-lactamase
DH5α + TEM-116 = experiment: Whole-cell NMR β-lactamase hydrolysis assay, DH5α + TEM-116; assay type: cell-based, E. coli; conditions: DH5α + TEM-116, 100 μM, 90 min
recombinant AmpC protein = biological target: T2, recombinant AmpC protein (Escherichia coli, UniProt P00811); assay type: biochemical
T2 construct: purchased Abcam ab104926
T2 sequence (P00811 20-377): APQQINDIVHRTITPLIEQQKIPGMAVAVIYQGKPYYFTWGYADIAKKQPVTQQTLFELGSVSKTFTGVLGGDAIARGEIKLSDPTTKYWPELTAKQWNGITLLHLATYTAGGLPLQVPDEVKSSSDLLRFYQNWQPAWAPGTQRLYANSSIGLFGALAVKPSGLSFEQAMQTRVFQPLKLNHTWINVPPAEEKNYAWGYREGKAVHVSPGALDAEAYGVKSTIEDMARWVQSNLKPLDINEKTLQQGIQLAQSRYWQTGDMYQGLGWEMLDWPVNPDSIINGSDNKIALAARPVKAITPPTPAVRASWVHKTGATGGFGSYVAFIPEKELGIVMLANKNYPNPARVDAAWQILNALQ

CC(=O)OCC1=C(C(=O)O)N2C(=O)[C@@H](NC(=O)Cc3cccs3)[C@H]2SC1 [Ceph 7, cephalothin, reference compound]
% hydrolysis by NMR –βla (DH5α cells –βla): 0%
% hydrolysis by NMR +βla (DH5α expressing CTX-M-1; listed as cepaholothin 7): complete hydrolysis

O=C(O)c1cn(C2CC2)c2cc(N3CCNCC3)c(F)cc2c1=O [Ciprofloxacin 31, ciprofloxacin, reference compound]
effect of CTX-M-15 on DNA gyrase inhibitory activity (recombinant DNA gyrase): not affected by CTX-M-15

CC(=O)OCC1=C(C(=O)O)N2C(=O)[C@@H](NC(=O)[C@H](C)c3ccccc3)[C@H]2SC1 [compound 10, (6R,7R)-3-(Acetoxymethyl)-8-oxo-7-((R)-2-phenylpropanamido)-5-thia-1-azabicyclo[4.2.0]oct-2-ene-2-carboxylic Acid]
% hydrolysis in CFT073 + pSU18 + CTX-M-1 (CFT073 + pSU18 + CTX-M-1): 0%

CC(=O)OCC1=C(C(=O)O)N2C(=O)[C@@H](NC(=O)Cc3ccccc3)[C@H]2SC1 [compound 11, (6R,7R)-3-(Acetoxymethyl)-8-oxo-7-(2-phenylacetamido)-5-thia-1-azabicyclo[4.2.0]oct-2-ene-2-carboxylic Acid]
increase in MIC value against E. coli DH5α compared to cephalothin (E. coli strain DH5α): 4 fold

CC(=O)OCC1=C(C(=O)O)N2C(=O)[C@@H](NC(=O)Cc3ccc(C)cc3)[C@H]2SC1 [compound 12, (6R,7R)-3-(Acetoxymethyl)-8-oxo-7-(2-(p-tolyl)acetamido)-5-thia-1-azabicyclo[4.2.0]oct-2-ene-2-carboxylic Acid]
MIC (CFT073 + pSU18 (pEMP)): 100 µM

CC(=O)OCC1=C(C(=O)O)N2C(=O)[C@@H](NC(=O)Cc3ccc(F)cc3)[C@H]2SC1 [compound 13, (6R,7R)-3-(Acetoxymethyl)-7-(2-(4-fluorophenyl)acetamido)-8-oxo-5-thia-1-azabicyclo[4.2.0]oct-2-ene-2-carboxylic Acid]
MIC (CFT073 + pSU18 (pEMP)): 100 µM

CC(=O)OCC1=C(C(=O)O)N2C(=O)[C@@H](NC(=O)Cc3ccc(Cl)cc3)[C@H]2SC1 [compound 14, (6R,7R)-3-(Acetoxymethyl)-7-(2-(4-chlorophenyl)acetamido)-8-oxo-5-thia-1-azabicyclo[4.2.0]oct-2-ene-2-carboxylic Acid]
MIC (CFT073 + pSU18 (pEMP)): 100 µM

CC(=O)OCC1=C(C(=O)O)N2C(=O)[C@@H](NC(=O)Cc3ccc(Br)cc3)[C@H]2SC1 [compound 15, (6R,7R)-3-(Acetoxymethyl)-7-(2-(4-bromophenyl)acetamido)-8-oxo-5-thia-1-azabicyclo[4.2.0]oct-2-ene-2-carboxylic Acid]
MIC (CFT073 + pSU18 (pEMP)): 100 µM

CC(=O)OCC1=C(C(=O)O)N2C(=O)[C@@H](NC(=O)Cc3ccc(-c4ccccc4)cc3)[C@H]2SC1 [compound 16, (6R,7R)-7-(2-([1,1′-Biphenyl]-4-yl)acetamido)-3-(acetoxymethyl)-8-oxo-5-thia-1-azabicyclo[4.2.0]oct-2-ene-2-carboxylic Acid]
% hydrolysis by NMR –βla (DH5α cells –βla): 0%
% hydrolysis by NMR +βla (DH5α expressing CTX-M-1): 100%
MIC value DH5α (E. coli strain DH5α): no measurable MIC values

CC(=O)OCC1=C(C(=O)O)N2C(=O)[C@@H](NC(=O)Cc3ccc(Oc4ccccc4)cc3)[C@H]2SC1 [compound 17, (6R,7R)-3-(Acetoxymethyl)-8-oxo-7-(2-(4-phenoxyphenyl)acetamido)-5-thia-1-azabicyclo[4.2.0]oct-2-ene-2-carboxylic Acid]
% hydrolysis by NMR +βla (DH5α + TEM-116): 54%
% hydrolysis by NMR –βla (DH5α cells –βla): 0%
MIC value DH5α (E. coli strain DH5α): no measurable MIC values

CC(=O)OCC1=C(C(=O)O)N2C(=O)[C@@H](NC(=O)Cc3cccc(C)c3)[C@H]2SC1 [compound 18, (6R,7R)-3-(acetoxymethyl)-8-oxo-7-(2-(m-tolyl)acetamido)-5-thia-1-azabicyclo[4.2.0]oct-2-ene-2-carboxylic Acid]
increase in kcat/Km compared to cephalothin (recombinant AmpC protein): 3 fold
increase in kcat/Km compared to para-methyl 12 (recombinant AmpC protein): 5 fold

CC(=O)OCC1=C(C(=O)O)N2C(=O)[C@@H](NC(=O)Cc3cccc(Oc4ccccc4)c3)[C@H]2SC1 [compound 19, (6R,7R)-3-(Acetoxymethyl)-8-oxo-7-(2-(3-phenoxyphenyl)acetamido)-5-thia-1-azabicyclo[4.2.0]oct-2-ene-2-carboxylic Acid]
% hydrolysis in CFT073 + pSU18 + CTX-M-1 (CFT073 + pSU18 + CTX-M-1): 0%
MIC value DH5α (E. coli strain DH5α): no measurable MIC values

CC(=O)OCC1=C(C(=O)O)N2C(=O)[C@@H](NC(=O)C3CCCCC3)[C@H]2SC1 [compound 25, (6R,7R)-3-(Acetoxymethyl)-7-(cyclohexanecarboxamido)-8-oxo-5-thia-1-azabicyclo[4.2.0]oct-2-ene-2-carboxylic Acid]
% hydrolysis in CFT073 + pSU18 + CTX-M-1 (CFT073 + pSU18 + CTX-M-1): 0%

CCCCCC(=O)N[C@@H]1C(=O)N2C(C(=O)O)=C(COC(C)=O)CS[C@H]12 [compound 28, (6R,7R)-3-(Acetoxymethyl)-7-hexanamido-8-oxo-5-thia-1-azabicyclo[4.2.0]oct-2-ene-2-carboxylic Acid]
MIC (CFT073 + pSU18 (pEMP)): 100 µM
